Columns and labels:
[1] = VK stability in plasma (HPLC); assay type: in vitro ADME; conditions: plasma (species not given), pH 7.4, 37 °C, 750 rpm, at 120 min; VK 0.735 mM (Fig. 1 legend 73.5 nM); HPLC-UV 215 nm, peak area relative to 0 min; at least triplicate
Method: Proteolytic degradation of peptide-based drugs is generally considered as the main defect to limit systemic therapeutic applications. Therefore, high-performance liquid chromatography (HPLC) was used to assess the stability of VK in PBS or plasma at physiological pH (7.4) and temperature (37 °C). […] For neuropharmacology, crossing the BBB is a remarkable challenge, and VK was labeled with FITC in the N-terminus. FITC-labeled VK was then administered to stroke mice. After 30 min, these mice were imaged by an in vivo imaging system. […] Brains were collected at 0, 30, 60, 90, and 120 min and the distribution of VK was observed. […] To further evaluate whether VK was a cell-penetrating peptide, the oxygen-glucose deprivation/reoxygenation (OGD/R) model simulated I/R […] was established in HT22 hippocampal neuron cells and FITC-labeled VK was incubated for 120 min.
VK in PBS or plasma was detected by quantifying the peak areas relative to the initial peak areas (0 min). All stability tests were performed at least in triplicate.

MCAO/R mice = conditions: mouse, in vivo
BV2 cells (OGD/R) = assay: qRT-PCR of proinflammatory mediators; assay type: cell-based, mouse; conditions: RT-PCR
HT22 cells (OGD/R) = assay: Annexin V-FITC/propidium iodide apoptosis; assay type: cell-based, mouse; conditions: Annexin V-FITC/PI flow cytometry
[2] = tested on: neurons in brain of MCAO/R mice; assay: NeuN immunohistochemistry; assay type: in vivo, mouse
[3] = tested on: 17 phosphorylation sites, prefrontal cortex lysate; assay: Phospho antibody microarray; assay type: in vivo, mouse
Method: Protein phosphorylation detection was performed with a Phospho Explorer Antibody Array (Catalog number AAM-APOSIG-1-8, Ray Biotech, USA), allowing for the examination of 17 phosphorylation sites (three replicates per antibody). Whole-cell lysates from the prefrontal cortex in mice after MCAO/R and VK-treated, and the assay was performed according to the manufacturer’s protocol.

[4] = tested on: HT22 hippocampal neuron cells (OGD/R); assay: HT22 cell viability after OGD/R (CCK8)
[5] = Group2(VK 150) VS Group1(VK 300)
[6] = Group2(VK 150) VS Group3(Sham), AveExp.Group3 minus AveExp.Group2
[7] = Group4(Vehicle) VS Group1(VK 300)
[8] = Group4(Vehicle) VS Group2(VK 150)
[9] = Vehicle vs VK headed 150 mg/kg, Regulation up
[10] = Vehicle vs VK headed 300mg/kg, Regulation up

Substance: Gly-Arg-Pro-Hyp-Gly-Phe-Ser-Pro-Phe-Arg-Ile-Asp [VK, Vespakinin-M]
- degradation of VK in plasma [1]: completely degraded
- neurological deficits and infarct size vs vehicle (antagonist study) (MCAO/R mice): attenuated neurological deficits and infarct size
- infarct volume, TTC staining (MCAO/R mice; ip): decreased infarct volume
- OGD/R-increased expression of proinflammatory cytokines in BV2 cells (BV2 cells (OGD/R)): remarkably blocked these effects
- apoptosis of HT22 cells after OGD/R (HT22 cells (OGD/R)): restrained apoptosis
- number of NeuN-positive cells [2]: greater than that in the vehicle-treated group
- AKT(S473) logFC [3, 5]: 0.1681
- ATM(S1981) logFC [3, 5]: 0.4433
- BAD(S112) logFC [3, 5]: 0.1628
- CHK1 (S296) logFC [3, 5]: 0.118
- Casp3(D175) logFC [3, 5]: 0.2616
- Casp7(D198) logFC [3, 5]: 0.356
- Erk1/2(T202) logFC [3, 5]: 0.2636
- IkBa (S32) logFC [3, 5]: -0.1062
- JNK(T183) logFC [3, 5]: 0.1152
- NFKB(S536) logFC [3, 5]: 0.07606
- P27(T198) logFC [3, 5]: -0.02206
- P38(T180/Y182) logFC [3, 5]: 0.08158
- P53(S15) logFC [3, 5]: -0.02082
- SMAD2(S245) logFC [3, 5]: 0.2566
- TAK1(S412) logFC [3, 5]: 0.04657
- eIF2a (S51) logFC [3, 5]: 0.3172
- hsp27(S82) logFC [3, 5]: 0.2446
- AKT(S473) logFC [3, 6]: 0.1633
- ATM(S1981) logFC [3, 6]: 0.1496
- BAD(S112) logFC [3, 6]: 0.121
- CHK1 (S296) logFC [3, 6]: 0.2057
- Casp3(D175) logFC [3, 6]: 0.09625
- Casp7(D198) logFC [3, 6]: 0.03142
- Erk1/2(T202) logFC [3, 6]: 0.1043
- IkBa (S32) logFC [3, 6]: 0.1056
- JNK(T183) logFC [3, 6]: 0.02185
- NFKB(S536) logFC [3, 6]: -0.02812
- P27(T198) logFC [3, 6]: 0.08521
- P38(T180/Y182) logFC [3, 6]: -0.03282
- P53(S15) logFC [3, 6]: 0.03719
- SMAD2(S245) logFC [3, 6]: 0.04639
- TAK1(S412) logFC [3, 6]: 0.09444
- eIF2a (S51) logFC [3, 6]: 0.1069
- hsp27(S82) logFC [3, 6]: 0.06748
- AKT(S473) logFC ([3]; Group3(Sham) VS Group1(VK 300)): 0.3314
- ATM(S1981) logFC ([3]; Group3(Sham) VS Group1(VK 300)): 0.5929
- BAD(S112) logFC ([3]; Group3(Sham) VS Group1(VK 300)): 0.2838
- CHK1 (S296) logFC ([3]; Group3(Sham) VS Group1(VK 300)): 0.3237
- Casp3(D175) logFC ([3]; Group3(Sham) VS Group1(VK 300)): 0.3578
- Casp7(D198) logFC ([3]; Group3(Sham) VS Group1(VK 300)): 0.3874
- Erk1/2(T202) logFC ([3]; Group3(Sham) VS Group1(VK 300)): 0.3679
- IkBa (S32) logFC ([3]; Group3(Sham) VS Group1(VK 300)): -0.0006282
- JNK(T183) logFC ([3]; Group3(Sham) VS Group1(VK 300)): 0.137
- NFKB(S536) logFC ([3]; Group3(Sham) VS Group1(VK 300)): 0.04795
- P27(T198) logFC ([3]; Group3(Sham) VS Group1(VK 300)): 0.06315
- P38(T180/Y182) logFC ([3]; Group3(Sham) VS Group1(VK 300)): 0.04876
- P53(S15) logFC ([3]; Group3(Sham) VS Group1(VK 300)): 0.01637
- SMAD2(S245) logFC ([3]; Group3(Sham) VS Group1(VK 300)): 0.303
- TAK1(S412) logFC ([3]; Group3(Sham) VS Group1(VK 300)): 0.141
- eIF2a (S51) logFC ([3]; Group3(Sham) VS Group1(VK 300)): 0.4241
- hsp27(S82) logFC ([3]; Group3(Sham) VS Group1(VK 300)): 0.3121
- CHK1 (S296) logFC [3, 7]: 0.6052
- Casp7(D198) logFC [3, 7]: 0.6994
- Erk1/2(T202) logFC [3, 7]: 0.4686
- IkBa (S32) logFC [3, 7]: 0.671
- JNK(T183) logFC [3, 7]: 0.4121
- NFKB(S536) logFC [3, 7]: 0.4222
- P38(T180/Y182) logFC [3, 7]: 0.4307
- hsp27(S82) logFC [3, 7]: 0.386
- logFC AKT(S473) [3, 7]: 0.1073
- logFC ATM(S1981) [3, 7]: 0.3928
- logFC BAD(S112) [3, 7]: 0.3454
- logFC Casp3(D175) [3, 7]: 0.3417
- logFC P27(T198) [3, 7]: 0.1337
- logFC P53(S15) [3, 7]: 0.1112
- logFC SMAD2(S245) [3, 7]: 0.1323
- logFC TAK1(S412) [3, 7]: 0.1801
- logFC eIF2a (S51) [3, 7]: 0.3444
- logFC AKT(S473) [3, 8]: -0.06086
- logFC ATM(S1981) [3, 8]: -0.05046
- logFC BAD(S112) [3, 8]: 0.1826
- logFC CHK1 (S296) [3, 8]: 0.4872
- logFC Casp3(D175) [3, 8]: 0.08018
- logFC Casp7(D198) [3, 8]: 0.3435
- logFC Erk1/2(T202) [3, 8]: 0.205
- logFC IkBa (S32) [3, 8]: 0.7772
- logFC JNK(T183) [3, 8]: 0.2969
- logFC NFKB(S536) [3, 8]: 0.3462
- logFC P27(T198) [3, 8]: 0.1557
- logFC P38(T180/Y182) [3, 8]: 0.3491
- logFC P53(S15) [3, 8]: 0.132
- logFC SMAD2(S245) [3, 8]: -0.1242
- logFC TAK1(S412) [3, 8]: 0.1335
- logFC eIF2a (S51) [3, 8]: 0.02722
- logFC hsp27(S82) [3, 8]: 0.1414
- levels of IκBa (S32), CHK1 (S296), NF-κB (S536), p38 (T180/Y182), Casp7 (D198), JNK(T183) vs vehicle ([3]; VK 150 µg/kg, MCAO/R mice): clearly decreased levels
- NFκB(S536) AveExp. Group2 ([3]; VK group headed 150 mg/kg): 11
- IκBa (S32) AveExp. Group2 ([3]; VK group headed 150 mg/kg (text 150 µg/kg)): 10.95
- NFκB(S536) AveExp. Group1 ([3]; VK group headed 300mg/kg): 10.93
- IκBa (S32) AveExp. Group1 ([3]; VK group headed 300mg/kg (text 300 µg/kg)): 11.05
- IκBa (S32) logFC ([3]; Vehicle (Group4) vs VK headed 150 mg/kg, Regulation up): 0.7772
- IκBa (S32) logFC ([3]; Vehicle (Group4) vs VK headed 300mg/kg, Regulation up): 0.671
- Casp7(D198) logFC [3, 9]: 0.3435
- JNK(T183) logFC [3, 9]: 0.2969
- NFκB(S536) logFC [3, 9]: 0.3462
- ATM(S1981) logFC [3, 10]: 0.3928
- BAD(S112) logFC [3, 10]: 0.3454
- CHK1 (S296) logFC [3, 10]: 0.6052
- Casp3(D175) logFC [3, 10]: 0.3417
- Casp7(D198) logFC [3, 10]: 0.6994
- Erk1/2(T202) logFC [3, 10]: 0.4686
- JNK(T183) logFC [3, 10]: 0.4121
- NFκB(S536) logFC [3, 10]: 0.4222
- P38(T180/Y182) logFC [3, 10]: 0.4307
- eIF2a (S51) logFC [3, 10]: 0.3444
- hsp27(S82) logFC [3, 10]: 0.386
- cell activity of HT22 cells after OGD/R [4]: enhanced cell activity

Source: article PMC8776894 (Communications Biology, 2022)
